The structures appear in SMILES notation. Where only a bound is given, the exact number is not on record here.

Our source for the Km values is paper PMC3304435 (Biochemistry, 2012).

In the assay the target is Escherichia coli RtcB ligase (Escherichia coli, UniProt P46850). The class given is biochemical. As to conditions: Mn2+; 3′-P / 5′-OH tRNA-mimic RNA substrate; estimated upper limit.
Escherichia coli RtcB ligase, sequence (P46850 whole entry): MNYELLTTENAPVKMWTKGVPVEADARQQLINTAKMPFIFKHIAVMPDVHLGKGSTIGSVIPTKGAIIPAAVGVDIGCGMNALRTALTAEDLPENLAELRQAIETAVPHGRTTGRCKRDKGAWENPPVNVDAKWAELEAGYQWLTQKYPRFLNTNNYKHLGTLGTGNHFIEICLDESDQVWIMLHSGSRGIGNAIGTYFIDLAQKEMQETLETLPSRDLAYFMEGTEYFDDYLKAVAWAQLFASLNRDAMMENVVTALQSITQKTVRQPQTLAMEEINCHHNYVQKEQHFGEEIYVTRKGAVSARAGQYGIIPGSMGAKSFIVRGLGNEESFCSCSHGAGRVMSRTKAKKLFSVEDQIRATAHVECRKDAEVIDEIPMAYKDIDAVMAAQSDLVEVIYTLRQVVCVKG

As a reminder, the Km is the concentration of substrate that gives half-maximal velocity. In the case of `Nc1nc2c(ncn2[C@@H]2O[C@H](COP(=O)(O)OP(=O)(O)OP(=O)(O)O)[C@@H](O)[C@H]2O)c(=O)[nH]1` [GTP], the Michaelis-Menten constant (Km) is below 16 µM.
